Experiments:
Type in all cases: in vivo
[1] = test system: Welsh onion plant (Sakaiyakko); assay: reducing leaf blight and improving quality, spray on Welsh onion plant; conditions: for Leaf blight: leaf blight index, 50 plants, sprayed three times; for Phytotoxicity: scale of 1 to 5
Procedure: The effects of a quality improver in reducing leaf blight and improving fruit quality were evaluated using a Welsh onion plant (Sakaiyakko).
That is, the quality improver of Example 1 was sprayed on the Welsh onion at the polyvalent metal concentrations shown in Table 7 over three times from early June (one-week interval) using a backpack sprayer.
The evaluation was carried out on 50 randomly selected plants. The leaf blight was determined by evaluating the degree of leaf blight based on a 4-point scale (none=0, mild=1, moderate=2, severe=3), and expressed by the following equation: leaf blight index={(1×the number of plants with mild leaf blight)+(2×the number of plants with moderate leaf blight)+(3×the number of plants with severe leaf blight)}×100/(3× the number of plants examined). In addition, plant length, plant weight, the number of leaves, and yield were evaluated. The dirt on a leaf surface was evaluated by a ratio of the surface area soiled whitish to the total surface area of the leaf on a scale of 1 to 5 (not soiled=1, slightly soiled=2, a little soiled=3, moderately soiled=4, much soiled=5). The phytotoxicity was evaluated on a scale of 1 to 5 (normal=1, slightly damaged=2, a little damaged=3, moderately damaged=4, much damaged=5).
The examinations were carried out in the same manner as in Application Example 43 except that the quality improvers of Examples 2 to 21 and Comparative Examples 1 to 4 were used instead of the quality improver of Example 1.

[2] = test system: pear tree (Housui); assay: reducing water core and improving fruit quality, spray on pear tree
Procedure: The effects of a quality improver in reducing water core and improving fruit quality were evaluated using a pear tree (Housui).
That is, the quality improver of Example 1 was sprayed on the pear tree at the polyvalent metal concentrations shown in Table 14 over four times from late April (ten-day interval) and two times from middle July (ten-day interval). Each treatment was conducted on each branch by spraying with a backpack sprayer.
The evaluation was carried out on 30 randomly selected fruits. The degree of water core was evaluated by examining three cross sections of the stalk cavity part, the equatorial part, and the calyx end part of the fruit based on a 4-point scale (none=0, mild=1, moderate=2, severe=3). The result of the evaluation was expressed by the following equation: water core index={(1×the number of fruits with mild water core)+(2×the number of fruits with moderate water core)+(3×the number of fruits with severe water core)}/(the number of fruits examined). The fruit with a water core index of 2 or 3 was considered as a seriously damaged fruit. The ground color of fruit skin was determined using a color chart for Japanese pear based on a scale of 1 (immature) to 6 (overmature). The sugar content was determined using a sugar refractometer. The dirt on a fruit surface was evaluated by a ratio of the surface area soiled whitish to the total surface area of the fruit on a scale of 1 to 5 (not soiled=1, slightly soiled=2, a little soiled=3, moderately soiled=4, much soiled=5). The phytotoxicity was evaluated on a scale of 1 to 5 (normal=1, slightly damaged=2, a little damaged=3, moderately damaged=4, much damaged=5).
The examinations were carried out in the same manner as in Application Example 94 except that the quality improvers of Examples 2 to 4, 6 to 7, 12, 14, 17 to 18, and Comparative Examples 1 to 4 were used instead of the quality improver of Example 1.

[3] = test system: apple tree (Orin); assay: reducing bitter pit and improving fruit quality, spray on apple tree; conditions: for Incidence of bitter pit: 50 fruits, sprayed four times; for Ground color: fruit skin, 5-point scale (best=5, worst=1); for Phytotoxicity: scale of 1 to 5; for Sugar content: sugar refractometer; for Acidity: titratable malic acid content
Procedure: The effects of a quality improver in reducing bitter pit and improving fruit quality were evaluated using an apple tree (Orin). That is, the quality improver of Example 1 was sprayed on the apple tree at the polyvalent metal concentrations shown in Table 4 over four times from early June (two-week interval). Each treatment was conducted on each branch by spraying with a backpack sprayer.
The evaluation was carried out on 50 randomly selected fruits. The incidence of bitter pit was expressed as a ratio of the number of fruits with bitter pit to the total number of fruits examined. The ground color of fruit skin was determined on a 5-point scale (best=5, worst=1). The sugar content was determined using a sugar refractometer. The acidity was expressed as titratable malic acid content. The phytotoxicity was evaluated on a scale of 1 to 5 (normal=1, slightly damaged=2, a little damaged=3, moderately damaged=4, much damaged=5).
The examinations were carried out in the same manner as in Application Example 22 except that the quality improvers of Examples 2 to 21 and Comparative Examples 1 to 4 were used instead of the quality improver of Example 1.

SMILES | Leaf blight ([1]; polyvalent metal 0.030 wt. %) | Leaf blight ([1]; polyvalent metal 0.075 wt. %) | Number of leaves ([1]; polyvalent metal 0.030 wt. %) | Plant length ([1]; polyvalent metal 0.030 wt. %) | Plant weight ([1]; polyvalent metal 0.030 wt. %) | Number of leaves ([1]; polyvalent metal 0.075 wt. %) | Plant length ([1]; polyvalent metal 0.075 wt. %) | Plant weight ([1]; polyvalent metal 0.075 wt. %) | Phytotoxicity ([1]; polyvalent metal 0.030 wt. %) | Phytotoxicity ([1]; polyvalent metal 0.075 wt. %) | Ground color ([2]; polyvalent metal 0.030 wt. %) | Phytotoxicity ([2]; polyvalent metal 0.030 wt. %) | Seriously damaged fruit ([2]; polyvalent metal 0.030 wt. %) [%] | Sugar content ([2]; polyvalent metal 0.030 wt. %) | Water core index ([2]; polyvalent metal 0.030 wt. %) | Ground color ([2]; polyvalent metal 0.075 wt. %) | Phytotoxicity ([2]; polyvalent metal 0.075 wt. %) | Seriously damaged fruit ([2]; polyvalent metal 0.075 wt. %) [%] | Sugar content ([2]; polyvalent metal 0.075 wt. %) | Water core index ([2]; polyvalent metal 0.075 wt. %) | also measured
O=C[O-].O=C[O-].[Ca+2] [calcium formate] | 30.0 | 28.0 | 34.2 | 60.8 | 185 | 35.6 | 62.8 | 191 | 3 | 3 | 3.6 | 3 | 23.3 | 13.0 | 0.80 | 3.8 | 3 | 16.7 | 13.2 | 0.77 | Incidence of bitter pit ([3]; polyvalent metal 0.030 wt. %): 26.0%; Incidence of bitter pit ([3]; polyvalent metal 0.075 wt. %): 24.0%; Ground color ([3]; polyvalent metal 0.030 wt. %): 3.8; Ground color ([3]; polyvalent metal 0.075 wt. %): 3.8; Phytotoxicity ([3]; polyvalent metal 0.030 wt. %): 3; Phytotoxicity ([3]; polyvalent metal 0.075 wt. %): 3; Sugar content ([3]; polyvalent metal 0.030 wt. %): 14.5; Sugar content ([3]; polyvalent metal 0.075 wt. %): 14.9; Acidity ([3]; polyvalent metal 0.030 wt. %): 0.38; Acidity ([3]; polyvalent metal 0.075 wt. %): 0.30
[Ca+2].[Cl-].[Cl-] [calcium chloride] | 42.0 | 40.0 | 30.3 | 59.2 | 185 | 31.3 | 60.9 | 189 | 4 | 4 | 3.7 | 4 | 30.0 | 12.8 | 0.97 | 3.5 | 4 | 26.7 | 12.6 | 0.90 | Incidence of bitter pit ([3]; polyvalent metal 0.030 wt. %): 30.0%; Incidence of bitter pit ([3]; polyvalent metal 0.075 wt. %): 25.0%; Ground color ([3]; polyvalent metal 0.030 wt. %): 3.7; Ground color ([3]; polyvalent metal 0.075 wt. %): 3.9; Phytotoxicity ([3]; polyvalent metal 0.030 wt. %): 4; Phytotoxicity ([3]; polyvalent metal 0.075 wt. %): 4; Sugar content ([3]; polyvalent metal 0.030 wt. %): 14.1; Sugar content ([3]; polyvalent metal 0.075 wt. %): 14.2; Acidity ([3]; polyvalent metal 0.030 wt. %): 0.37; Acidity ([3]; polyvalent metal 0.075 wt. %): 0.35
